Test results published in US10010560B2, “Small molecule HSP70 inhibitors” (THE TRUSTEES OF THE UNIVERSITY OF PENNSYLVANIA, priority 2014, dated 2018).
Read-outs that look alike come from different tables or passages of the source.

Experiments:
[1] = target: T1, ATP-HSP70 (WT) (Homo sapiens, UniProt P0DMV8, E110D); assay: ITC binding to ATP-bound full-length HSP70
T1 construct: Full-length recombinant proteins of HSP70 (aa 1-641) as well as DnaK (aa 1-638); His6 (N); made in house; host or cells: E. coli BL21 Star (DE3)
Excerpt: The human stress-inducible HSP70 (residues 1-641 or 386-616 of SEQ ID NO: 2) and E. coli DnaK (residues 1-638, 389-607, or 393-507 of SEQ ID NO: 4) were cloned into the pET25 vector (EMD Millipore Chemicals, Inc., Billerica, Mass., USA) between the NdeI and XhoI restriction sites. The full-length HSP70 and DnaK mutants were constructed by PCR-based site-directed mutagenesis using the QuikChange™ Site-Directed Mutagenesis Kit (Agilent Technologies, Inc., Santa Clara, Calif., USA). All plasmid inserts were verified by DNA sequencing. All HSP70 and DnaK variants were produced with a N-terminal His6-tag in the E. coli BL21 Star (DE3) strain (Invitrogen catalog number C6010-03). The resulting strains were grown at 37° C. in LB medium containing 50 μg/mL of carbenicillin (Sigma-Aldrich Co., St. Louis, Mo., USA). At an OD600 about 0.3 to about 0.5, protein expression was induced with 0.5 mM isopropyl-β-D-thiogalactopyranoside (IPTG), and cells were subsequently grown at 25° C. for about 16 h. Cells were collected by centrifugation and resuspended in the Bugbuster® Master Mix (EMD Millipore Chemicals catalog number 71456-4), supplemented with protease inhibitors, 1 mM diethiothreitol (DTT) and 20 mM imidazole. The His6-tagged fusion proteins were isolated on Ni^2+-chelating resins (Ni-NTA Superflow, Qiagen catalog number 30410) by standard procedures. When necessary, size-exclusion chromatography on a Superdex® 200 or a Superose® 6 10/300 GL columns (GE Healthcare) analytical column pre-equilibrated with 1× Dulbecco's Phosphate Buffered Saline (DPBS—Invitrogen 14190-136), 1 mM Tris-HCl (pH 7.4) or 10 mM Tris-HCl (pH 7) was used as the final purification step. The purified DnaK proteins were dialyzed thoroughly against 1× DPBS with 5 mM DTT at 4° C., for crystallization trials involving the small molecule inhibitor PET-16. For isothermal titration calorimetry studies, all HSP70 and DnaK variants were dialyzed extensively against the buffers as noted below under the section entitled “Isothermal Titration calorimetry Studies”. […]

[2] = target: T2, ADP-DnaK (WT, aa 1-638) (Escherichia coli, UniProt P0A6Y8); assay: ITC binding to ADP-bound full-length DnaK; parameters: species or system E. coli
T2 construct: Full-length recombinant proteins of HSP70 (aa 1-641) as well as DnaK (aa 1-638); His6 (N); made in house; host or cells: E. coli BL21 Star (DE3)
Procedure: For isothermal titration calorimetry studies, all HSP70 and DnaK variants were dialyzed extensively against the buffers as noted below under the section entitled “Isothermal Titration calorimetry Studies”. The dialyzed proteins were subsequently microcentrifugated at 15,000×g for 5 min at 4° C. and aliquots of the soluble proteins were stored at −80° C.
All ITC experiments were performed using a MicroCal VP-ITC isothermal titration calorimeter (MicroCal). Both full-length HSP70 and DnaK proteins and DnaK (aa 393-507) proteins were prepared in 1 mM Tris-HCl (pH 7.4) buffer containing 3% dimethylsulfoxide (DMSO). The HSP70 (aa 386-616) protein was prepared in buffer containing 3% DMSO and 10 mM Tris-HCl, pH 7. The syringe was loaded with purified protein in either 1 mM Tris-HCl (pH 7.4) buffer containing 3% DMSO or 10 mM Tris-HCl (pH 7) buffer containing 3% DMSO. […] All solutions were degassed for 5 min.
The titrations involving the full-length purified proteins were performed at 25° C. with injection volumes of 12 μL and a spacing of 300 s. The titrations involving the purified HSP70 (aa 386-616) and DnaK (aa 393-507) were performed at 42° C. with injection volumes of 12 μL and a spacing of 300 s. Heat from the pre-injection was not used during fitting. […]

[3] = target: T3, ATP-bound DnaK (Escherichia coli, UniProt P0A6Y8); assay: ITC binding to ATP-bound DnaK; parameters: species or system E. coli; settings: in words
T3 construct: Full-length recombinant proteins of HSP70 (aa 1-641) as well as DnaK (aa 1-638); His6 (N); made in house; host or cells: E. coli BL21 Star (DE3)
Excerpt: The human stress-inducible HSP70 (residues 1-641 or 386-616 of SEQ ID NO: 2) and E. coli DnaK (residues 1-638, 389-607, or 393-507 of SEQ ID NO: 4) were cloned into the pET25 vector (EMD Millipore Chemicals, Inc., Billerica, Mass., USA) between the NdeI and XhoI restriction sites. The full-length HSP70 and DnaK mutants were constructed by PCR-based site-directed mutagenesis using the QuikChange™ Site-Directed Mutagenesis Kit (Agilent Technologies, Inc., Santa Clara, Calif., USA). All plasmid inserts were verified by DNA sequencing. All HSP70 and DnaK variants were produced with a N-terminal His6-tag in the E. coli BL21 Star (DE3) strain (Invitrogen catalog number C6010-03). The resulting strains were grown at 37° C. in LB medium containing 50 μg/mL of carbenicillin (Sigma-Aldrich Co., St. Louis, Mo., USA). At an OD600 about 0.3 to about 0.5, protein expression was induced with 0.5 mM isopropyl-β-D-thiogalactopyranoside (IPTG), and cells were subsequently grown at 25° C. for about 16 h. Cells were collected by centrifugation and resuspended in the Bugbuster® Master Mix (EMD Millipore Chemicals catalog number 71456-4), supplemented with protease inhibitors, 1 mM diethiothreitol (DTT) and 20 mM imidazole. The His6-tagged fusion proteins were isolated on Ni^2+-chelating resins (Ni-NTA Superflow, Qiagen catalog number 30410) by standard procedures. […]

[4] = tested on: Cyclophilin D (Cyp-D); assay: Purified mitochondria from H1299 cells, western blot for Cyp-D; format: cell-based
Excerpt: FIGS. 5A-5F illustrates that PET-16 leads to loss of mitochondrial protein Cyclophilin D and impairs bioenergetics in tumor cells. FIGS. 5A-5D are western blots of HSP70, which is present at mitochondria of tumor H1299 cells but not in normal tissue, such as liver. The constitutively expressed 70 kDa family members, HSC70 and GRP75, are present in mitochondria of normal cells. Equal amounts of whole cell (WC)-, cytosolic (cyto)-, and mitochondrial (mito)-extracts prepared from cell lines H1299 (A, C) and MIA PaCa-2 (B) or normal (liver) cells (C, D) were examined by western blot analysis for the presence of the proteins indicated. […] Decreases of AlamarBlue® fluorescence, indicative of mitochondrial damage, are noted in PET-16-treated tumor cells (melanoma tumor cell line WM88 (-), melanoma tumor cell line WM3000 (×), melanoma tumor cell line WM852 (*), human melanoma 451 Lu cells (●), and melanoma tumor cell line WM989 (|), but not normal cells (nontransformed human fibroblasts (IMR90-♦) and primary melanocytes (▪)). Values are normalized to the vehicle-treated cells. Error bars represent standard deviation (s.d.) of four independent experiments. […]

T1 sequence (P0DMV8 whole entry E110D, the tested form may be a part): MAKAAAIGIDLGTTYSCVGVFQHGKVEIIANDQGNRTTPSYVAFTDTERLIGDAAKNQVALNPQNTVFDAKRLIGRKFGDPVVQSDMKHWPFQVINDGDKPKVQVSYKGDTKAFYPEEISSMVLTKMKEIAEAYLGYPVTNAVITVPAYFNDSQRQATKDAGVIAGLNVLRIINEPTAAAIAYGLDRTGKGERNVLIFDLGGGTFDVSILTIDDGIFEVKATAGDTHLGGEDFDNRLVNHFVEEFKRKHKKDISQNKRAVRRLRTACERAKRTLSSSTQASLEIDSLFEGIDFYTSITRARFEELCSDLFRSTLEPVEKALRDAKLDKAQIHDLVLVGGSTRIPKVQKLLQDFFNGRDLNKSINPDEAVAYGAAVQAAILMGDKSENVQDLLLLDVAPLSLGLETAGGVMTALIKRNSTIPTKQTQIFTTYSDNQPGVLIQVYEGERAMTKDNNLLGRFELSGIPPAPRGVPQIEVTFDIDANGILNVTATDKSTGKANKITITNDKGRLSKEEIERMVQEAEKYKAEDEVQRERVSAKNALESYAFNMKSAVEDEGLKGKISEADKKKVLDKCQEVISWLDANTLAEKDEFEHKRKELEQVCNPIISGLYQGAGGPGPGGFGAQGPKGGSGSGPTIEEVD
T2 sequence (P0A6Y8 whole entry, the tested form may be a part): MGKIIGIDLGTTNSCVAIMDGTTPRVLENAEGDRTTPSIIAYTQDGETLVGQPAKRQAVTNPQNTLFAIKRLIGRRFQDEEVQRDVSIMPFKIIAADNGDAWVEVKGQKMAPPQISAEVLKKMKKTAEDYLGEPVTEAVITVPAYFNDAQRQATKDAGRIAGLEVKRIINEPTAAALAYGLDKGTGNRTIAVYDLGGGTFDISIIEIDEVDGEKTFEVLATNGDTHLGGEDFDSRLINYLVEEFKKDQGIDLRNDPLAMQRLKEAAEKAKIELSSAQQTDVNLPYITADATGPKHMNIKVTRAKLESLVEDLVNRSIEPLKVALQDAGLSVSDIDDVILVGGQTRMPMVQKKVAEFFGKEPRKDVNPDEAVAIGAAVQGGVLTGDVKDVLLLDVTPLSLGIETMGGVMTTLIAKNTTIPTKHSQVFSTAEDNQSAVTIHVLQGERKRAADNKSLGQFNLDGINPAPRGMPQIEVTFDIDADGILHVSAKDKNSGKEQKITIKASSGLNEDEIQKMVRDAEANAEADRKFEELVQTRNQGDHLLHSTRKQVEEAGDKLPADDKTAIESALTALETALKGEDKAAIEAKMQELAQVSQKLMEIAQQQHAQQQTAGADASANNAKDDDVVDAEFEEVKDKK
T3 sequence (P0A6Y8 whole entry, the tested form may be a part): as above

SMILES | interaction with ATP-bound HSP70 ([1]; in words) | Kd ([2]; ITC, wild-type full-length ADP-bound DnaK, read-out: Kd) | interaction with ATP-bound DnaK [3] | abundance of Cyp-D in the soluble-protein fraction [4] | Kd ([1]; wild-type full-length ATP-bound HSP70) | Kd [2]
NS(=O)(=O)C#Cc1ccccc1 [PES, 2-Phenylethynesulfonamide, reference compound] | notably reduced | ~6.8 µM | notably reduced | not | – | –
C(#C[P+](c1ccccc1)(c1ccccc1)c1ccccc1)c1ccccc1.[Br-] [PET-16, triphenyl(phenylethynyl)phosphonium bromide] | – | – | notably reduced | significantly reduced | 130 ± 8.3 µM | ~6 µM
